{"source": "patent US6632834B2", "about": "“Compositions and methods for treating conditions responsive to estrogen” (Pfizer Inc., priority 2000, dated 2003)", "key": {"[1]": {"tested_on": "MCF-7 cells", "assay": "Inhibition of in vitro human breast tumor cell growth (direct cell counts), ER-positive cells", "type": "cell-based", "settings": "MCF-7 (ER-positive), 6 days incubation", "protocol": "(§1) The in vitro antiproliferative effects of (−)-cis-6-phenyl-5-[4-(2-pyrrolidin-1-yl-ethoxy)-phenyl]-5,6,7,8-tetrahydro-naphthalene-2-ol (PPTN) were tested using two types of human breast cancer cell lines: first, MCF-7 cells, which contain ER as well as progesterone receptors (PgR), and second, MDA-MB-231 cells, which lack ER and PgR, and enable the determination of an effect that is independent of the ER mechanism. The effect of PPTN on the growth of these different cell lines was determined by incubation of the cells with various compound concentrations for 6 days.\n(§2) The antiproliferative effects were then determined by direct cell counts. PPTN inhibited the growth of the ER-positive cell line MCF-7."}, "[2]": {"tested_on": "MDA-MB-231 cells", "assay": "Inhibition of in vitro human breast tumor cell growth (direct cell counts), ER-negative cells", "type": "cell-based", "settings": "MDA-MB-231 (ER-negative), 6 days incubation", "protocol": "as §1, §2"}}}
{"molecule": "Oc1ccc2c(c1)CC[C@H](c1ccccc1)[C@@H]2c1ccc(OCCN2CCCC2)cc1", "note": "[PPTN, (−)-cis-6-phenyl-5-[4-(2-pyrrolidin-1-yl-ethoxy)-phenyl]-5,6,7,8-tetrahydro-naphthalene-2-ol]", "values": [{"measurement": "IC50 for growth inhibition", "setting": "[1]", "value": "3 to 5×10^−11 M"}, {"measurement": "inhibition of cell proliferation", "setting": "[2]", "value": "did not inhibit cell proliferation"}]}
